In assay [1] the test system is Primary WT mouse aortic smooth muscle cells. Put plainly: alamarBlue cell viability assay in primary mouse aortic smooth muscle cells. It counts as cell-based. As to conditions: 48 hours after treatment; 10% FBS/DMEM; increasing concentrations; p<0.0001 vs vehicle (0 uM). Here is the method:
FIG. 11. Primary WT mouse aortic smooth muscle cells cultured in 10% FBS/DMEM medium were exposed to increasing concentrations of ICG-001 or vehicle (triplicates for each concentration). Cell viability was measured 48 hours after treatment by alamarBlue Assay. Cell viability (%, relative to vehicle treated cells, which were set as 100%) is plotted against the concentration of ICG-001 (uM).
(§1) In order to test the role of Wnt/beta-catenin signaling in vascular SMC biology, beta-catenin was specifically inactivated in SMCs, using a genetic approach in the mouse. […] After midgestation, dilated arterial vessels without an evident SMC layer were observed (FIG. 7). […] It was determined that increased p53 activity in SMCs partially explains the effects of inactivating beta-catenin (FIG. 9).
For orientation: Resazurin is reduced to fluorescent resorufin, in cell work by metabolically active cells.

The subject of the next assay is p53. The experiment in a line: p53 luciferase-based reporter assay in primary vascular SMCs. The class given is cell-based. Conditions: control primary vascular SMCs (Adeno-GFP). Here is the method:
FIG. 10. […] The activity of p53 was measured by a luciferase-based reporter assay.
as §1
(In a reporter assay the amount or activity of a reporter protein is the signal.)

Entries after “also recorded” stand apart in the source; their conditions may differ.

Regarding `O=C1[C@H](Cc2ccc(O)cc2)N2C(=O)CCN(C(=O)NCc3ccccc3)[C@H]2CN1Cc1cccc2ccccc12` [ICG-001], the “Cell viability (%, relative to vehicle treated cells)” value in assay [1] is listed as “significantly decreases viability of MASMCs in culture in a dose-response manner”.

On to `Oc1nc(-c2ccc(C(F)(F)F)cc2)nc2c1CSCC2` [XAV939], for which, in the assay on p53 (10 uM XAV939, p<0.05), the “p53 activity compared to vehicle (DMSO)” value is listed as “significant increase in p53 activity”. The p53 activity result in the assay with p53 (wild type, luciferase-based reporter, dose dependence) is listed as “induced p53 activity in control primary vascular SMCs (Adeno-GFP) in a dose dependent manner; also recorded: induced p53 activity in wild type vascular SMCs”.

The values are drawn from patent US10441687B2, “Wnt/beta-catenin inhibitor-eluting endovascular stent” (ALBERT EINSTEIN COLLEGE OF MEDICINE, INC., priority 2013, dated 2019).
